In patent publication US4130647A, “Methods for treating congestive heart failure and ischemic heart disease” (priority 1977, dated 1978):
Several values for one entry are separate records, joined by “and”; a condition that tells them apart may be missing. Equal values may be shown once.

Columns and labels:
[1] = tested on: patients with essential hypertension; settings: cited from earlier work
[2] = tested on: patients with chronic left sided congestive heart failure; assay: Adverse effects of trimazosin (Example 3); format: in vivo, human
Method: The patients then received in a double-blind, randomized study trimazosin or placebo for six weeks. Eight patients received one placebo capsule three times daily for weeks one and two, two placebo capsules three times daily for weeks three and four, and three placebo capsules three times daily for weeks five and six of the double-blind period. Seven patients received one 50 mg. trimazosin capsule three times daily for weeks one and two, two 50 mg. trimazosin capsules three times daily for weeks three and four, and three 50 mg. trimazosin capsules three times daily for weeks five and six of the double-blind period. One patient (patient number five on trimazosin) received one 50 mg. trimazosin capsule three times daily for 32 days. […] The patients were seen by one of the investigators, questioned for symptoms, and given a physical examination in the baseline period, at the end of two weeks of single-blind placebo, and at the end of weeks one, two, three, four, five, and six on double-blind medication. A standard 12-lead electrocardiogram and PA and lateral chest roentgenograms were taken in the baseline period, at the end of two weeks of single-blind placebo, and at the end of three weeks and six weeks on double-blind medication.

[3] = tested on: patients with chronic left sided congestive heart failure; assay: Treadmill exercise duration until marked dyspnea, trimazosin (Example 3); format: in vivo, human; settings: for improvement in exercise duration vs. placebo: p<0.025
From the text: (§1) Sixteen men between 41 and 66 years of age with chronic left sided congestive heart failure were subjects. Twelve patients had coronary heart disease with an old healed myocardial infarction, one patient had alcoholic cardiomyopathy, and three patients had idiopathic cardiomyopathy as the cause of their chronic heart failure. All 16 patients had cardiomegaly on physical examination and on their chest roentgenogram, a left ventricular third heart sound heard by auscultation, and evidence of pulmonary venous congestion on their chest roentgenogram. Their baseline standing blood pressures ranged between 114 and 150 mm. Hg. systolic and 72 and 100 mm. Hg. diastolic.
The patients received digitalis and diuretic therapy for 6 to 48 months. Their dose of digitalis and diuretic was not changed during this study. Except for potassium chloride, no other medications were taken by any of the 16 patients during this study. All patients signed informed consent forms.
(§2) After baseline measurements, all 16 patients received one capsule of single-blind placebo three times daily for two weeks. The patients then received in a double-blind, randomized study trimazosin or placebo for six weeks. Eight patients received one placebo capsule three times daily for weeks one and two, two placebo capsules three times daily for weeks three and four, and three placebo capsules three times daily for weeks five and six of the double-blind period. Seven patients received one 50 mg. trimazosin capsule three times daily for weeks one and two, two 50 mg. trimazosin capsules three times daily for weeks three and four, and three 50 mg. trimazosin capsules three times daily for weeks five and six of the double-blind period. One patient (patient number five on trimazosin) received one 50 mg. trimazosin capsule three times daily for 32 days. Their trimazosin dose was not increased after two weeks of this dose because their standing systolic blood pressure was 104/70 mm. Hg.
(§3) Two practice treadmill tests were performed by all patients prior to the baseline period. The patients performed a multi-stage uninterrupted treadmill exercise test until the onset of marked dyspnea in the baseline period, and approximately two hours after their morning dose of medication after two weeks of single-blind placebo, after three weeks of double-blindmedication, and after six weeks of double-blind medication. The patients exercised at a treadmill speed of 1.7 m.p.h. and a treadmill grade of 0% for the first 3 min., a treadmill speed of 1.7 m.p.h. and a treadmill grade of 10% for the next 3 min., at a treadmill speed of 2.5 m.p.h. and a treadmill grade of 12% for the third 3 min. period, and then at a treadmill speed of 3.4 m.p.h. and a treadmill grade of 14%.
(§4) The data listed in Tables 1-4 were analyzed using Student's t test for independent means. Fisher's exact test was used to analyze the data on improvement of symptoms and the data on changes in roentgenographic evidence of pulmonary venous congestion.

[4] = tested on: patients with chronic left sided congestive heart failure; assay: Resting and exercise blood pressure, heart rate, ST-segment depression and cardiothoracic ratio, trimazosin (Example 3); format: in vivo, human; settings: for Cardiothoracic ratio / Exercise diastolic blood pressure / Exercise heart rate / Exercise systolic blood pressure / Exercise systolic pressure times heart rate/100 / Maximal ST-segment depression below resting level / Resting diastolic blood pressure / Resting heart rate / Resting systolic blood pressure / Resting systolic pressure times heart rate/100: mean
From the text: as §1
as §2, with “days.” for “days. Their trimazosin dose was not increased after two weeks of this dose because their standing systolic blood pressure was 104/70 mm. Hg.”
The patients were seen by one of the investigators, questioned for symptoms, and given a physical examination in the baseline period, at the end of two weeks of single-blind placebo, and at the end of weeks one, two, three, four, five, and six on double-blind medication. A standard 12-lead electrocardiogram and PA and lateral chest roentgenograms were taken in the baseline period, at the end of two weeks of single-blind placebo, and at the end of three weeks and six weeks on double-blind medication.
as §3
The patients were monitored by telemetry with simultaneous leads II and V5 throughout exercise. […] blood pressures were recorded with the patients in the sitting and standing positions immediately before exercise, with the patients in the standing position at the end of each completed stage of exercise and at the end of exercise, and with the patients in the sitting and standing positions every 1 min. for at least 5 min. after the end of exercise. Blood pressures were recorded with a mercury sphygmomanometer. The heart rates were measured from the electrocardiographic recordings.
as §4

[5] = single oral doses of 50 to 150 mg.
[6] = patient number five, four days prior to the myocardial infarction

COc1cc2c(N)nc(N3CCN(C(=O)OCC(C)(C)O)CC3)nc2c(OC)c1OC [trimazosin, 2-hydroxy-2-methylpropyl 4-(4-amino-6,7,8-trimethoxy-2-quinazolinyl)-1-piperazinecarboxylate]
Heart Rate ([1]; hypertensives without heart failure): does not increase heart rate | blood pressure [1, 5]: significantly lower blood pressure | effect on heart rate [1, 5]: No significant effects | effect on plasma renin activity [1, 5]: No significant effects | side effect [1, 5]: Mild transient dizziness | time of peak effect [1, 5]: between one and four hours | time until effect was apparent [1, 5]: ≤ 30 min | adverse effects attributed to medication ([2]; 16 patients (trimazosin or placebo)): No adverse effects attributed to medication occurred in any of the 16 patients | adverse effects such as systemic lupus erythematosus ([2]; in vivo): has not been associated with adverse effects such as systemic lupus erythematosus | reflex tachycardia ([2]; in vivo): does not produce a reflex tachycardia | event in patient number five ([2]; thirty-second day of trimazosin therapy): acute myocardial infarction with ventricular fibrillation | side effects ([2]; trimazosin 450 mg. daily): without occurrence of any side effects | Double-blind trimazosin (3 weeks) exercise time ([3]; 300 mg. daily (patient 5: 150 mg. daily), individual patients): 180 s and 428 s and 398 s and 280 s and 298 s and 389 s and 476 s and 322 s | Double-blind trimazosin (6 weeks) exercise time ([3]; 450 mg. daily, individual patients): 232 s and 295 s and 406 s and 435 s and 627 s and 527 s and 363 s | Change from average of baseline and placebo exercise times ([3]; 3 weeks, 300 mg. daily (patient 5: 150 mg. daily), individual patients): +110% | Double-blind trimazosin (3 weeks) exercise time, mean ([3]; 3 weeks, mean, baseline/placebo average 255.5): 346.4 s | improvement in exercise duration vs. placebo ([3]; 3 weeks): significantly greater | Change from average of baseline and placebo exercise times ([3]; 6 weeks, 450 mg. daily, individual patients): +136% and +122% | Double-blind trimazosin (6 weeks) exercise time, mean ([3]; 6 weeks, 450 mg. daily, mean): 412.1 s | improvement in exercise duration vs. placebo ([3]; 6 weeks): significantly greater | resting systolic blood pressure, change compared with placebo ([4]; 3 weeks, p<0.001): significant decrease | resting product of systolic blood pressure times heart rate, change compared with placebo ([4]; 3 weeks, p<0.005): significant decrease | resting diastolic blood pressure, change compared with placebo ([4]; 3 weeks, p<0.025): significant decrease | diastolic blood pressure at the end of exercise, change compared with placebo ([4]; 6 weeks, p<0.005): significant decrease | resting diastolic blood pressure, change compared with placebo ([4]; 6 weeks, p<0.005): significant decrease | resting systolic blood pressure, change compared with placebo ([4]; 6 weeks, p<0.005): significant decrease | resting product of systolic blood pressure times heart rate, change compared with placebo ([4]; 6 weeks, p<0.01): significant decrease | standing systolic blood pressure ([4]; patient number five, after two weeks of 50 mg. three times daily): 104/70 | blood pressure, standing position [4, 6]: 104/70 | blood pressure, supine position [4, 6]: 106/70 | Cardiothoracic ratio ([4]; trimazosin 3 weeks): 0.559 | Exercise diastolic blood pressure ([4]; trimazosin 3 weeks): 84.8 mm Hg | Exercise heart rate ([4]; trimazosin 3 weeks): 149.3 beats/min | Exercise systolic blood pressure ([4]; trimazosin 3 weeks): 156.5 mm Hg | Exercise systolic pressure times heart rate/100 ([4]; trimazosin 3 weeks): 236.4 | Maximal ST-segment depression below resting level ([4]; trimazosin 3 weeks): 1.31 mm | Resting diastolic blood pressure ([4]; trimazosin 3 weeks): 74.3 mm Hg | Resting heart rate ([4]; trimazosin 3 weeks): 86.3 beats/min | Resting systolic blood pressure ([4]; trimazosin 3 weeks): 116.0 mm Hg | Resting systolic pressure times heart rate/100 ([4]; trimazosin 3 weeks): 100.0 | Cardiothoracic ratio ([4]; trimazosin 6 weeks): 0.556 | Exercise diastolic blood pressure ([4]; trimazosin 6 weeks): 80.5 mm Hg | Exercise heart rate ([4]; trimazosin 6 weeks): 151.0 beats/min | Exercise systolic blood pressure ([4]; trimazosin 6 weeks): 154.3 mm Hg | Exercise systolic pressure times heart rate/100 ([4]; trimazosin 6 weeks): 235.4 | Maximal ST-segment depression below resting level ([4]; trimazosin 6 weeks): 1.31 mm | Resting diastolic blood pressure ([4]; trimazosin 6 weeks): 72.5 mm Hg | Resting heart rate ([4]; trimazosin 6 weeks): 86.5 beats/min | Resting systolic blood pressure ([4]; trimazosin 6 weeks): 112.0 mm Hg | Resting systolic pressure times heart rate/100 ([4]; trimazosin 6 weeks): 96.9
